According to patent US11209437B2, “Fluorescent probe and preparation method and use thereof” (Fluorescence Diagnosis (shanghai) Biotech Company Ltd., priority 2016, dated 2021):

Legend:
[1] = Viscosity responsiveness: fluorescence emission spectra of probes in glycerol and methanol; format: physicochemical; details: for Emission wavelength: excited at maximum excitation wavelength of each probe; for Fluorescence ratio in glycerol to methanol: probe 1×10^−5 M
Protocol: Probes 1 to 98, 101, 103, 105, 107, 109, 111, 114, 117, and 120, and the reference probes 99, 100, 102, 104, 106, 108, 110, 112, 113, 115, 116, 118, 119, 121, BG-CCVJ and BG-Gly-CCVJ were dissolved in dimethyl sulfoxide, respectively, to prepare mother liquors having a concentration of 1×10^−2 M, to each of which glycerol and methanol were added and uniformly mixed, to prepare solutions finally having a concentration of 1×10^−5 M. Depending on the probes, fluorescence emission spectra of the probes were detected successively with the maximum excitation wavelength of each probe under the same conditions, and the results were shown in Table 1.
That is, these probes are sensitive to viscosity changes and have viscosity responsiveness.

[2] = Fluorescence of free probe prior to binding to a protein tag; format: physicochemical
Protocol: (§1) Probes were mixed with corresponding protein tags to obtain mixed samples, in which the final probe concentration was 5 μM, and the final protein tag concentration was 10 μM. The mixed samples were incubated 37° C. for 1 hr, fluorescence spectrophotometer was used to detect the change in fluorescence intensity, and the results are shown in Table 1.
(§2) From the quantum yield of probe bound to protein tag, after reacting with the protein tags, the probes of the Examples could be detected to have significant signal enhancement in corresponding excitation transmission channels, the fluorescence activation multiple reached several hundreds to a thousand or more, and the brightness was high, which illustrates that after the probes of the Examples are bound to the protein tags, fluorescence of the probes can be activated, and the probes have good fluorescent molecular switching properties. In contrast, though the fluorescence of the reference probes could also be activated, the quantum yield of activated fluorescence was very low, and the brightness was very poor. In particular, in view of comparison results between probe 98 and reference probe 99, probe 101 and reference probe 102, probe 103 and reference probe 104, probe 105 and reference probe 106, probe 107 and reference probe 108, probe 109 and reference probe 110, probe 111 and reference probe 112, probe 114 and reference probe 115, probe 117 and reference probe 118, probe 120 and reference probe 121 in Table 1, for the same fluorescent dye, when the ligand is connected to the electron donor part of the fluorescent dye, the fluorescence activation brightness of the probe is much higher than the reference probe in which ligand is connected to the electron acceptor part of the fluorescent dye.

SNAP protein tags = target: T1, SNAP protein tags (Homo sapiens, UniProt P16455, A127T/A154D/C150Q/C62A/E30R/G131K/G132T/G153L/K125A/K32I/L33F/M134L/N157G/Q115S/Q116H/R128A/R135S/S151G/S152D/S159E); assay: Fluorescence activation of probe after incubation with corresponding protein tag (SNAP); format: biochemical; details: probe 5 μM, protein tag 10 μM, 37° C., 1 hr
T1 sequence (P16455 1-182 E30R/K32I/L33F/C62A/Q115S/Q116H/K125A/A127T/R128A/G131K/G132T/M134L/R135S/C150Q/S151G/S152D/G153L/A154D/N157G/S159E): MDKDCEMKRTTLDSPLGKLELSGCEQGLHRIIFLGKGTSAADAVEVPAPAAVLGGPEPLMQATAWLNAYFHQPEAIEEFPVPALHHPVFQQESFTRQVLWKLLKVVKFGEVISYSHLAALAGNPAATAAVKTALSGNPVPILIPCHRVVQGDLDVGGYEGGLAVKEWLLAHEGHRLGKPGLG
Protocol: as §1, §2

CN(CCO)c1cc2c(s1)-c1sc(/C=C(/C#N)C(=O)NCc3ccc(COc4nc(N)nc5[nH]cnc45)cc3)cc1C2(C)C [Reference Probe 99, reference compound]
Emission wavelength [1]: 649 nm | Fluorescence ratio in glycerol to methanol [1]: 129 | Quantum yield of free probe [2]: <0.001 | Fluorescence activation multiple (SNAP protein tags): 53 | Quantum yield of probe bound to protein tag (SNAP protein tags): 0.01

CN(C)c1ccc(/C=C(\C#N)C(=O)NCc2ccc(COc3nc(N)nc4[nH]cnc34)cc2)cc1 [Reference Probe 100, reference compound]
Emission wavelength [1]: 480 nm | Fluorescence ratio in glycerol to methanol [1]: 213 | Quantum yield of free probe [2]: <0.001 | Fluorescence activation multiple (SNAP protein tags): 43 | Quantum yield of probe bound to protein tag (SNAP protein tags): 0.011

CN(CCO)c1ccc(/C=C(\C#N)C(=O)NCc2ccc(COc3nc(N)nc4[nH]cnc34)cc2)cc1 [Reference Probe 102, reference compound]
Emission wavelength [1]: 480 nm | Fluorescence ratio in glycerol to methanol [1]: 212 | Quantum yield of free probe [2]: <0.001 | Fluorescence activation multiple (SNAP protein tags): 31 | Quantum yield of probe bound to protein tag (SNAP protein tags): 0.02

N#C/C(=C\c1ccc2c(c1)SCCN2CCO)C(=O)NCc1ccc(COc2nc(N)nc3[nH]cnc23)cc1 [Reference Probe 104, reference compound]
Emission wavelength [1]: 515 nm | Fluorescence ratio in glycerol to methanol [1]: 351 | Quantum yield of free probe [2]: <0.001 | Fluorescence activation multiple (SNAP protein tags): 23 | Quantum yield of probe bound to protein tag (SNAP protein tags): 0.02

CC1=CC(C)(C)N(CCO)c2ccc(/C=C(\C#N)C(=O)NCc3ccc(COc4nc(N)nc5[nH]cnc45)cc3)cc21 [Reference Probe 106, reference compound]
Emission wavelength [1]: 555 nm | Fluorescence ratio in glycerol to methanol [1]: 215 | Quantum yield of free probe [2]: <0.001 | Fluorescence activation multiple (SNAP protein tags): 62 | Quantum yield of probe bound to protein tag (SNAP protein tags): 0.01

CN(CCO)c1cc2sc(/C=C(\C#N)C(=O)NCc3ccc(COc4nc(N)nc5[nH]cnc45)cc3)cc2s1 [Reference Probe 108, reference compound]
Emission wavelength [1]: 555 nm | Fluorescence ratio in glycerol to methanol [1]: 329 | Quantum yield of free probe [2]: <0.001 | Fluorescence activation multiple (SNAP protein tags): 30 | Quantum yield of probe bound to protein tag (SNAP protein tags): 0.02

CN(CCO)c1ccc(C#C/C=C(\C#N)C(=O)NCc2ccc(COc3nc(N)nc4[nH]cnc34)cc2)cc1 [Reference Probe 110, reference compound]
Emission wavelength [1]: 567 nm | Fluorescence ratio in glycerol to methanol [1]: 218 | Quantum yield of free probe [2]: <0.001 | Fluorescence activation multiple (SNAP protein tags): 23 | Quantum yield of probe bound to protein tag (SNAP protein tags): 0.01

CN(CCO)c1ccc2cc(/C=C(\C#N)C(=O)NCc3ccc(COc4nc(N)nc5[nH]cnc45)cc3)sc2c1 [Reference Probe 112, reference compound]
Emission wavelength [1]: 570 nm | Fluorescence ratio in glycerol to methanol [1]: 211 | Quantum yield of free probe [2]: <0.001 | Fluorescence activation multiple (SNAP protein tags): 41 | Quantum yield of probe bound to protein tag (SNAP protein tags): 0.01

CN(C)c1ccc2nc(/C=C(\C#N)C(=O)NCc3ccc(COc4nc(N)nc5[nH]cnc45)cc3)sc2c1 [Reference Probe 113, reference compound]
Emission wavelength [1]: 625 nm | Fluorescence ratio in glycerol to methanol [1]: 129 | Quantum yield of free probe [2]: <0.001 | Fluorescence activation multiple (SNAP protein tags): 36 | Quantum yield of probe bound to protein tag (SNAP protein tags): 0.01
